# Experimental data taken from US20140357713A1, “ANTIMICROBIAL COMPOUNDS AND METHODS OF USE” (NexMed Holdings, Inc., priority 2012, published 2014).
# Where two headings read alike, the source gives them in different places.
# How the values were obtained:
# [1] = tested on: Staphulococcus aureus (ATCC 29213); assay: Minimum inhibitory concentration (MIC) assay, Example 33; type: cell-based, Staphylococcus aureus; conditions: Staphylococcus aureus
# Summary of the method: (§1)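 Broth microdilution MIC per CLSI guidelines, in CAMHB with serial 2-fold compound dilutions. Bacterial inocula were adjusted to a 0.5 McFarland standard, then diluted 1:100 and 1:2 in the wells. Plates were incubated at 35 °C, and the MIC was read according to CLSI.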
# [2] = tested on: Candida albicans (ATCC 90029); assay: as above; type: cell-based; conditions: Candida albicans
# Summary of the method: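 Broth microdilution per CLSI guidelines in RPMI 1640; inoculum set to OD530 0.08–0.13, diluted 1:50 then 1:20 to 2× strength and mixed 1:2 with 2-fold serial compound dilutions. Incubated at 35° C; MIC read per CLSI.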
# [3] = tested on: Aspergillus niger (CMCC 98003); assay: as above; type: cell-based; conditions: Aspergillus niger
# Summary of the method: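 Broth microdilution MIC per CLSI guidelines in RPMI 1640 with serial 2-fold compound dilutions. Spore suspension from sporulating colonies adjusted to OD530 0.09-0.13, diluted 1:50 as 2× inoculum and added 1:2 to drug wells; plates incubated at 35 °C and MIC read per CLSI.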
# [4] = pH (Table 1); type: physicochemical
# [5] = tested on: Aspergillus niger (CMCC 98003); assay: Time kill study, Example 33 (0 to 5 min); type: cell-based; conditions: 1×MIC
# Protocol: Thirty compounds were tested for antimicrobial activity using standard procedures and standard strains for both the minimum inhibitory concentration (MIC) assay and a time kill study. Both the MIC assay and the time kill study were performed according to Clinical and Laboratory Standards Institute (CLSI) guidelines. Three bacteria strains, Escherichia coli (ATCC 25922), Pseudomonas aeruginosa (ATCC 27853), Staphulococcus aureus (ATCC 29213), and two fungus strains, Candida albicans (ATCC 90029) and Aspergillus niger (CMCC 98003), were used in the experiments.
# The viable counts in Log10 CFU/mL at each time point were recorded.
# Time kill studies. Strain suspensions were prepared as described above for the MIC test, and strain suspensions and compound solutions were mixed in the same volume. Samples were removed at specified times including 0 min, 30 sec, 1 min and 5 mins, were diluted in the test medium and streaked on agar. Colonies were counted after 24 to 48 hrs of incubation.
# The MIC values for thirty compounds against Escherichia coli, Pseudomonas aeruginosa, Staphulococcus aureus, Candida albicans, and Aspergillus niger were recorded and are presented in Table 3 and Table 4.
# [6] = tested on: Escherichia coli (ATCC 25922); assay: Minimum inhibitory concentration (MIC) assay, Example 33; type: cell-based; conditions: Escherichia coli
# Summary of the method: as §1
# [7] = tested on: Pseudomonas aeruginosa (ATCC 27853); assay: as above; type: cell-based; conditions: Pseudomonas aeruginosa
# Summary of the method: as §1
# [8] = tested on: Staphylococcus aureus (ATCC 29213); assay: Time kill study, Example 33 (0 to 5 min); type: cell-based; conditions: 1×MIC
# Summary of the method: (§2)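 Per CLSI guidelines, strain suspensions were mixed 1:1 by volume with compound solution; samples taken at 0 min, 30 sec, 1 min and 5 min were diluted and plated on agar. Colonies were counted after 24 to 48 hrs incubation and viable counts reported as Log10 CFU/mL.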
# [9] = tested on: Escherichia coli (ATCC 25922); assay: Time kill study, Example 33 (0 to 5 min); type: cell-based; conditions: 1×MIC
# Summary of the method: as §2
# [10] = tested on: Pseudomonas aeruginosa (ATCC 27853); assay: Time kill study, Example 33 (0 to 5 min); type: cell-based; conditions: 1×MIC
# Summary of the method: as §2
# [11] = tested on: Candida albicans (ATCC 90029); assay: Time kill study, Example 33 (0 to 5 min); type: cell-based; conditions: 1×MIC
# Summary of the method: as §2
# [12] = ATCC29213, Table 19 summary, read-out: MIC
# [13] = ATCC29213, n = 1, read-out: MIC S. aureus
# [14] = ATCC29213, n = 2, read-out: MIC S. aureus
# [15] = ATCC90029, Table 19 summary, read-out: MIC
# [16] = ATCC90029, n = 1, read-out: MIC Candida albicans
# [17] = ATCC90029, n = 2, read-out: MIC Candida albicans
# [18] = CMCC98003, Table 19 summary, read-out: MIC
# [19] = CMCC98003, n = 1, read-out: MIC Aspergillus niger
# [20] = CMCC98003, n = 2, read-out: MIC Aspergillus niger
# [21] = ATCC25922, n = 1, read-out: MIC E. coli
# [22] = ATCC25922, n = 2, read-out: MIC E. coli
# [23] = ATCC27853, Table 19 summary, read-out: MIC
# [24] = ATCC27853, n = 1, read-out: MIC P. aeruginosa
# [25] = ATCC27853, n = 2, read-out: MIC P. aeruginosa
Compound,"MIC [1, 12]","MIC [1, 13]","MIC [1, 14]","MIC [2, 15]","MIC [2, 16]","MIC [2, 17]","MIC [3, 18]","MIC [3, 19]","MIC [3, 20]",pH [4],"MIC [6, 21]","MIC [6, 22]","MIC [7, 23]","MIC [7, 24]","MIC [7, 25]","Viable counts, Staphylococcus aureus time kill study ([8]; 0.5 min)","Viable counts, Staphylococcus aureus time kill study ([8]; 1 min)","Viable counts, Staphylococcus aureus time kill study ([8]; 5 min)","Viable counts, Staphylococcus aureus time kill study ([8]; time 0)","Viable counts, Escherichia coli time kill study ([9]; 0.5 min)",other results
"CCCCCCCCCCCCOC(=O)C(C)NC.Cl (centres unmarked) [Nex-59, Dodecyl 2-(methylamino)propanoate hydrochloride]",50 µg/mL,50 µg/mL,50 µg/mL,50 µg/mL,25 µg/mL,25 µg/mL,50 µg/mL,50 µg/mL,50 µg/mL,2.17,50 µg/mL,50 µg/mL,3130 µg/mL,3130 µg/mL,3130 µg/mL,6.33 Log10 CFU/mL,6.22 Log10 CFU/mL,6.15 Log10 CFU/mL,6.33 Log10 CFU/mL,5.04 Log10 CFU/mL,"Viable counts, Aspergillus niger time kill study ([5]; 0.5 min): 5.30 Log10 CFU/mL; Viable counts, Aspergillus niger time kill study ([5]; 1 min): 5.33 Log10 CFU/mL; Viable counts, Aspergillus niger time kill study ([5]; 5 min): 5.18 Log10 CFU/mL; Viable counts, Aspergillus niger time kill study ([5]; time 0): 5.27 Log10 CFU/mL; Viable counts, Escherichia coli time kill study ([9]; 1 min): 5.11 Log10 CFU/mL; Viable counts, Escherichia coli time kill study ([9]; 5 min): 4.56 Log10 CFU/mL; Viable counts, Escherichia coli time kill study ([9]; time 0): 5.34 Log10 CFU/mL; Viable counts, Pseudomonas aeruginosa time kill study ([10]; 0.5 min): 5.26 Log10 CFU/mL; Viable counts, Pseudomonas aeruginosa time kill study ([10]; 1 min): 4.78 Log10 CFU/mL; Viable counts, Pseudomonas aeruginosa time kill study ([10]; 5 min): <3.52 Log10 CFU/mL; Viable counts, Pseudomonas aeruginosa time kill study ([10]; time 0): 5.65 Log10 CFU/mL; Viable counts, Candida albicans time kill study ([11]; 0.5 min): 5.18 Log10 CFU/mL; Viable counts, Candida albicans time kill study ([11]; 1 min): 5.32 Log10 CFU/mL; Viable counts, Candida albicans time kill study ([11]; 5 min): 5.23 Log10 CFU/mL; Viable counts, Candida albicans time kill study ([11]; time 0): 5.3 Log10 CFU/mL; melting point: 78 to 83 °C"
"CCCCCCCCCCCCOC(=O)C(C)NC(C)C.Cl (centres unmarked) [Nex-60, Dodecyl 2-(isopropylamino)propanoate hydrochloride]",1560 µg/mL,1560 µg/mL,1560 µg/mL,12500 µg/mL,12500 µg/mL,12500 µg/mL,> 12500 µg/mL,> 12500 µg/mL,> 12500 µg/mL,2.04,3130 µg/mL,3130 µg/mL,6250 µg/mL,6250 µg/mL,6250 µg/mL,6.23 Log10 CFU/mL,6.25 Log10 CFU/mL,6.21 Log10 CFU/mL,6.28 Log10 CFU/mL,<4.0 Log10 CFU/mL,"MIC ([6]; ATCC25922, Table 19 summary of Example 33 and Example 35, read-out: MIC): 3130 µg/mL; Viable counts, Escherichia coli time kill study ([9]; 1 min): 3.7 Log10 CFU/mL; Viable counts, Escherichia coli time kill study ([9]; 5 min): <3.52 Log10 CFU/mL; Viable counts, Escherichia coli time kill study ([9]; time 0): 5.88 Log10 CFU/mL; Viable counts, Pseudomonas aeruginosa time kill study ([10]; 0.5 min): 4.6 Log10 CFU/mL; Viable counts, Pseudomonas aeruginosa time kill study ([10]; 1 min): 3.7 Log10 CFU/mL; Viable counts, Pseudomonas aeruginosa time kill study ([10]; 5 min): <3.52 Log10 CFU/mL; Viable counts, Pseudomonas aeruginosa time kill study ([10]; time 0): 5.58 Log10 CFU/mL; melting point: 86 to 91 °C"
